Data published in PMC5228125 (Scientific Reports, 2017).

Biological target: SARS-CoV PLpro (Severe acute respiratory syndrome coronavirus, UniProt P0C6X7)
Format: cell-based

In the case of `CC(=O)Nc1cccc(CNC(=O)C2CCN([C@H](C)c3cccc4ccccc34)CC2)c1` [compound 3e], the “Effect on SARS-CoV PLpro activity in the biosensor assay” value is reported as “blocks”.
